Measured values from patent US9592294B2, “Polyalkoxylated alcohols as excipients for pharmaceutical compositions” (Dow Global Technologies LLC, priority 2013, dated 2017).

Key:
[1] = Turbidity of wet-milled reference drug suspensions without excipient; type: physicochemical; conditions: 26 mg/L Probucol, assuming linear relationship between undissolved drug and turbidity
Method: Moreover, wet-milled drug suspensions were analyzed as reference samples to determine the turbidity of the drugs in the absence of excipients. […] 78.6 g of yttrium-stabilized zirconia grinding beads (YTZ from Tosoh Corp., diameter: 0.5 mm) were provided in a 50 mL plastic bottle and 10.0 g deionized water and 0.54 g of the respective drug were added. In the case of Probucol, a dispersant, Daxad 19LS (from Hampshire Chem. Corp.), was added in an amount corresponding to 1 wt. % of the mass of Probucol to counteract coating of the milling beads by the drug. The resulting mixture was placed on a rotating ball mill for 24 h. Subsequently 11.06 g of deionized water were added, the suspension was shaken extensively and then separated from the milling beads. An aliquot of 0.20 g of this suspension was further diluted with 49.80 g of deionized water to yield a suspension having a nominal drug concentration of 0.01 wt. %, which was then analyzed for its turbidity using a Nepheloskan Ascent instrument from ThermoLabsystem. […] Table 5 summarizes the measured turbidity of the wet milled reference drug suspensions along with the average particle size of the suspended drug particles measured using a 90 Plus Particle Size Analyzer instrument from Brookhaven Instruments Corp. and literature values for the aqueous solubility of the drugs.

[2] = phosphate buffer pH 7.0, terpene alcohol ethoxylates 20 wt. %, versus buffer alone; cited from earlier work

Structure (SMILES)	Turbidity calculated for a Probucol suspension [1] [RNU]	Increase of saturation drug concentration (factor) [2]
CC(C)(Sc1cc(C(C)(C)C)c(O)c(C(C)(C)C)c1)Sc1cc(C(C)(C)C)c(O)c(C(C)(C)C)c1 [Probucol]	~24	–
Nc1ccc(S(=O)(=O)Nc2nccs2)cc1 [sulfathiazole]	–	about 14
